In patent US12059413B2, “Methods of inhibiting viruses using compositions targeting TSG101-ubiquitin interaction” (The Research Foundation for the State University of New York, priority 2016, dated 2024) one finds IC50 and EGFR down-regulation function data, which are given here for one compound.

As a reminder, the IC50 is the concentration that gives 50% inhibition.

In one experiment the test system is Hela cells. Kind of experiment: Metabolic activity, WST-1 assay, Hela cells. As to conditions: Homo sapiens, 24 hr in N16, WST-1, read-out: IC50 (95% confidence levels), metabolic activity. The format is cell-based. The method, then:
(§1) FIG. 20A-C. N16 inhibition is virus-specific. A) N16 IC50 for Hela and 293T cells. […] Values were calculated by measuring metabolic activity (WST-1 Assay, Roche Applied Science) after cells were grown for 24 hr in N16. Data points represent the mean of 2 assays, 3 time points each for each cell line. […] Values in the absence or presence of N16 (50 uM) were 12% and 13%, respectively). C) N16 effect on EGF-stimulated EFGR degradation. Cells maintained for 24 hr in media containing DMSO alone or DMSO and N16 were stimulated with EGF ligand for a 90 min period and then assessed for EGFR steady-state level by Western analysis. EGFR levels for unstimulated and stimulated sample pairs are shown. A) n=2; B) n=2; C) n=2.
Cells were grown in 96-well trays for 24 hr with increasing levels of drug, metabolic activity was measured using WST-1colorimetric assay (Roche), and IC50 values were calculated (Prism 6, Graph Pad Software Inc.).
(Tetrazolium assays rely on reduction of a dye to a coloured formazan, in cell work by metabolically active cells.)

Another experiment deals with EGFR. Kind of experiment: EGF-stimulated EGFR degradation, Western analysis. The format is cell-based. As to conditions: concentrations well above 50 JAM. Here is the method: as §1
We investigated the specificity of the inhibitory effect. F15 and N16 impaired Tsg101-co-localization with Gag on the plasma membrane (c.f, FIG. 19) and reduced release of the VLPs assembled by Gag (c.f, FIG. 15). […] Cell metabolic activity was not affected after exposure to N16 for 24 hr; it decreased by less than 10% after exposure to N16 for 48 hr (not shown). Tsg101 localization to the midbody of dividing cells requires its recruitment to that location by centrosomal protein of 55k (CEP55) which binds a site in the Tsg101 Pro-rich domain (aa 154-166) (Lee, H. H., et al. (2008)). […]

For `COc1ccc2[nH]c([S+]([O-])Cc3ncc(C)c(OC)c3C)nc2n1` (centres unmarked) [N16, tenatoprazole], the IC50 with Hela cells was 156 to 205 µM. For the same compound, the EGFR down-regulation function entry with EGFR is recorded as “unimpaired”.
